Reference: US7390806B2, “Antibiotics containing borinic acid complexes and methods of use” (Anacor Pharmaceuticals, Inc., priority 2002, dated 2008)
Converted amounts (≈) assume the structure as drawn.

How the values were obtained:
S. aureus ATCC 29213 = assay: MIC determination, S. aureus ATCC 29213; assay type: cell-based, Staphylococcus aureus; details: for MIC S. aureus ATCC 29213: Table 1; for MIC: Staphylococcus aureus, ATCC29213, Table 1, read-out: MIC S. aureus ATCC 29213
[1] = tested on: S. epidermidis ATCC 12228; assay: MIC determination, S. epidermidis ATCC 12228; assay type: cell-based, Staphylococcus epidermidis; details: for MIC S. epidermidis ATCC 12228: Table 1; for MIC: Staphylococcus epidermidis, ATCC12228, Table 1, read-out: MIC S. epidermidis ATCC 12228
S. pneumoniae ATCC 6301 = assay: MIC determination, S. pneumoniae ATCC 6301; assay type: cell-based, Streptococcus pneumoniae; details: for MIC S. pneumoniae ATCC 6301: Table 1; for MIC: Streptococcus pneumoniae, ATCC6301, Table 1, read-out: MIC S. pneumoniae ATCC 6301
E. faecalis ATCC 29212 = assay: MIC determination, E. faecalis ATCC 29212; assay type: cell-based, Enterococcus faecalis; details: for MIC E. faecalis ATCC 29212: Table 1; for MIC: Enterococcus faecalis, ATCC29212, Table 1, read-out: MIC E. faecalis ATCC 29212
E. faecium CT-26 = assay: MIC determination, E. faecium CT-26; assay type: cell-based, Enterococcus faecium; details: for MIC E. faecium CT-26: Table 1; for MIC: Enterococcus faecium, CT26, Table 1, read-out: MIC E. faecium CT-26
[2] = tested on: M. catarrhalis ATCC 25238; assay: MIC determination, M. catarrhalis ATCC 25238; assay type: cell-based; details: for MIC M. catarrhalis ATCC 25238: Table 1; for MIC: Moraxella catarrhalis, ATCC25238, Table 1, read-out: MIC M. catarrhalis ATCC 25238

Row | SMILES | MIC S. aureus ATCC 29213 (S. aureus ATCC 29213) [micrograms per ml] | MIC S. epidermidis ATCC 12228 [1] [micrograms per ml] | MIC S. pneumoniae ATCC 6301 (S. pneumoniae ATCC 6301) [micrograms per ml] | MIC E. faecalis ATCC 29212 (E. faecalis ATCC 29212) [micrograms per ml] | MIC E. faecium CT-26 (E. faecium CT-26) [micrograms per ml] | MIC M. catarrhalis ATCC 25238 [2] [micrograms per ml] | MIC [1] [µg/mL] | MIC (S. pneumoniae ATCC 6301) [µg/mL] | MIC (E. faecalis ATCC 29212) [µg/mL] | MIC (E. faecium CT-26) [µg/mL] | MIC (S. aureus ATCC 29213) [µg/mL] | MIC [2] [µg/mL]
1 | Oc1cccc2cccnc12 [Compound 63, 8-hydroxyquinoline] | 2 | 1 | 2 | 8 | 4 | 1 |  |  |  |  |  | 
2 | Oc1cccc2cccnc12 [Compound 29, 8-hydroxyquinoline] | 0.5 | 1 | 2 | 8 | 2 | 0.5 |  |  |  |  |  | 
3 | Oc1cccc2cccnc12 [Compound 41, 8-hydroxyquinoline] | 1 | 1 | 1 | 4 | 2 | 1 |  |  |  |  |  | 
4 | C=CB(Oc1cccc2cccnc12)c1cccc(C#N)c1 [Compound 40, (3-Cyanophenyl)vinylborinic acid 8-hydroxyquinoline ester] | 1 | 1 | 1 | 8 | 2 | 2 |  |  |  |  |  | 
5 | Oc1ccc(F)c2cccnc12 [Compound 35] | 1 | 2 | 2 | 8 | 4 | 2 |  |  |  |  |  | 
6 | Fc1cccc(B(Oc2cccc3cccnc23)C2CC2)c1 [Compound 70, (3-Fluorophenyl)cyclopropylborinic acid 8-hydroxyquinoline ester] | 2 | 1 | 1 | 64 | 2 | 0.5 |  |  |  |  |  | 
7 | Oc1cccc2cccnc12 [Compound 42, 8-hydroxyquinoline] | 1 | 1 | 1 | 8 | 2 | 1 |  |  |  |  |  | 
8 | Oc1ccc(F)c2cccnc12 [Compound 62] | 2 | 2 | 2 | 8 | 4 | 2 |  |  |  |  |  | 
9 | Oc1cccc2cccnc12 [Compound 32, 8-hydroxyquinoline] | 1 | 1 | 1 | 16 | 2 | 2 |  |  |  |  |  | 
10 | Oc1ccc(F)c2cccnc12 [Compound 12] | 0.125 |  |  |  |  | 2 | 2 (≈ 12.3 µM) | 2 (≈ 12.3 µM) | 8 (≈ 49 µM) | 4 (≈ 24.5 µM) |  | 
11 | COc1cccc2c(O)cc(C(=O)O)nc12 [Compound 25] |  |  |  |  |  |  | 8 (≈ 36.5 µM) | 2 (≈ 9.12 µM) | 16 (≈ 73 µM) | 16 (≈ 73 µM) | 0.5 (≈ 2.28 µM) | 2 (≈ 9.12 µM)
12 | Clc1cccc(B(Oc2cccc3cccnc23)c2cccs2)c1 [Compound 36, (3-Chlorophenyl)(2-thienyl)borinic acid 8-hydroxyquinoline ester] | 1 | 1 | 2 | 8 | 2 | 4 |  |  |  |  |  | 
13 | Oc1c(Cl)cc(Cl)c2cccnc12 [Compound 23] | 0.5 | 16 |  |  | 16 |  |  | 8 (≈ 37.4 µM) | 64 (≈ 299 µM) |  |  | 0.12 (≈ 0.561 µM)
14 | Cc1ccnc2c(O)cccc12 [Compound 67] | 2 | 1 | 1 | 64 | 4 | 0.5 |  |  |  |  |  | 
15 | O=[N+]([O-])c1ccc(O)c2ncccc12 [Compound 22] |  |  |  |  |  |  | 4 (≈ 21 µM) | 2 (≈ 10.5 µM) | 64 (≈ 337 µM) | 16 (≈ 84.1 µM) | 0.5 (≈ 2.63 µM) | 0.12 (≈ 0.631 µM)
16 | Oc1cccc2cccnc12 [Compound 45, 8-hydroxyquinoline] | 1 | 1 | 1 | 8 | 1 | 1 |  |  |  |  |  | 
17 | Oc1cccc2cccnc12 [Compound 56, 8-hydroxyquinoline] | 2 | 2 | 2 | 8 | 4 | 4 |  |  |  |  |  | 
18 | Oc1cccc2cccnc12 [Compound 60, 8-hydroxyquinoline] | 2 | 1 | 2 | 8 | 4 | 2 |  |  |  |  |  | 
19 | Oc1cccc2cccnc12 [Compound 47, 8-hydroxyquinoline] | 1 | 1 | 1 | 8 | 2 | 1 |  |  |  |  |  | 
20 | Oc1cccc2cccnc12 [Compound 54, 8-hydroxyquinoline] | 2 | 1 | 2 | 8 | 4 | 1 |  |  |  |  |  | 
21 | Oc1cccc2cccnc12 [Compound 82, 8-hydroxyquinoline] | 2 | 2 | 2 | 8 | 2 | 4 |  |  |  |  |  | 
22 | Oc1cccc2cccnc12 [Compound 93, 8-hydroxyquinoline] | 2 | 1 | 1 | 8 | 4 | 1 |  |  |  |  |  | 
23 | Cc1ccnc2c(O)cccc12 [Compound 14] | 0.125 |  |  |  |  |  | 1 (≈ 6.28 µM) | 1 (≈ 6.28 µM) | 64 (≈ 402 µM) | 4 (≈ 25.1 µM) |  | 0.5 (≈ 3.14 µM)
24 | Oc1cccc2cccnc12 [Compound 99, 8-hydroxyquinoline] | 2 | 1 | 2 | 8 | 2 | 1 |  |  |  |  |  | 
25 | Cc1ccnc2c(O)cccc12 [Compound 66] | 2 | 1 | 1 | 64 | 4 | 0.5 |  |  |  |  |  | 
26 | Oc1cccc2cccnc12 [Compound 80, 8-hydroxyquinoline] | 2 | 1 | 2 | 4 | 4 | 2 |  |  |  |  |  | 
